IC50 data for 34 molecules are collected here from US7704995B2 (Exelixis, Inc., priority 2003, dated 2010).

The IC50 is the point on the concentration scale where inhibition reaches its midpoint.

This experiment deals with T1, Chk1 (Homo sapiens, UniProt O14757).
T1 construct: purchased Upstate Biotechnology
T1 sequence (O14757 1-476): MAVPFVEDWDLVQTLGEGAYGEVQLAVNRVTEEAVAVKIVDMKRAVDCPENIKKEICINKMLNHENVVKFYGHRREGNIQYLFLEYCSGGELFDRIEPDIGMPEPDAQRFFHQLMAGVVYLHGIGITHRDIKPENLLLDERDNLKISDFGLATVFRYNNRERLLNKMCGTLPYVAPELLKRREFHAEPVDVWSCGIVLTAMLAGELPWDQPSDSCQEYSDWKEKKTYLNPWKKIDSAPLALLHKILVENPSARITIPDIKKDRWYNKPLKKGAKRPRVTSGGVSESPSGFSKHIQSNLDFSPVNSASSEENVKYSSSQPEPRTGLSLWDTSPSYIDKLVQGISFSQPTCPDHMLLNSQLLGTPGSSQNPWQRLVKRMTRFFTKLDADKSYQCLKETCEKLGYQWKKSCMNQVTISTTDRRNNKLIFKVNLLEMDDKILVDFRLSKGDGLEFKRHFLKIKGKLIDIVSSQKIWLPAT
Kind of experiment: Chk1 kinase assay: incorporation of γ-33P ATP into immobilized myelin basic protein. In kind it is biochemical. The following applies: read-out: Chk1 IC50. An outline of the steps: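 Chk1 (10 nM) or Chk2 (20 nM) phosphorylated plate-immobilized myelin basic protein for 1 h at room temperature in Hepes pH 7.6 buffer with MgCl2, DTT, 1% DMSO, γ-33P ATP plus 10 μM (Chk1) or 30 μM (Chk2) unlabeled ATP. Bound radioactivity counted by scintillation; IC50 determined, Ki derivable from IC50.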
Consider `CNC(=O)c1nc(-c2ccc(C(=O)NCCc3ccccc3)cc2)cnc1N` [Example 151, 3-amino-N-methyl-6-(4-{[(2-phenylethyl)amino]carbonyl}phenyl)pyrazine-2-carboxamide], for which the IC50 lay in the range of 50 to 1000 nM.

As for `CNC(=O)c1nc(-c2ccc(C(=O)NCc3ccc(Cl)cc3Cl)cc2)cnc1N` [Example 152, 3-amino-6-[4-({[(2,4-dichlorophenyl)methyl]amino}carbonyl)phenyl]-N-methylpyrazine-2-carboxamide], the IC50 is 50 to 1000 nM.

As to `CNC(=O)c1nc(-c2ccc(C(=O)NCc3ccc(C)cc3)cc2)cnc1N` [Example 153, 3-amino-N-methyl-6-[4-({[(4-methylphenyl)methyl]amino}carbonyl)phenyl]pyrazine-2-carboxamide], the IC50 is 50 to 1000 nM.

As to `CNC(=O)c1nc(-c2ccc(C(=O)N[C@H]3CCc4ccccc43)cc2)cnc1N` [Example 154, 3-amino-6-(4-{[(1S)-2,3-dihydro-1H-inden-1-ylamino]carbonyl}phenyl)-N-methylpyrazine-2-carboxamide], the IC50 lay in the range of 50 to 1000 nM.

As to `CNC(=O)c1nc(-c2cccc(NC(=O)Cc3ccc(Cl)cc3)c2)cnc1N` [Example 155, 3-amino-6-(3-{[(4-chlorophenyl)acetyl]amino}phenyl)-N-methylpyrazine-2-carboxamide], the IC50 fell in the range of 50 to 1000 nM.

For the molecule `CNC(=O)c1nc(-c2cccc(NC(=O)c3cccc(Oc4ccccc4)c3)c2)cnc1N` [Example 156, 3-amino-N-methyl-6-[3-({[3-(phenyloxy)phenyl]carbonyl}amino)phenyl]pyrazine-2-carboxamide], the 50% inhibitory concentration (IC50) was in the range of 50 to 1000 nM.

Turning to `CNC(=O)c1nc(-c2cccc(NC(=O)C(c3ccccc3)c3ccccc3)c2)cnc1N` [Example 157, 3-amino-6-{3-[(diphenylacetyl)amino]phenyl}-N-methylpyrazine-2-carboxamide], the IC50 is 50 to 1000 nM.

With `CNC(=O)c1nc(-c2cccc(NC(=O)Cc3ccccc3)c2)cnc1N` [Example 158, 3-amino-N-methyl-6-{3-[(phenylacetyl)amino]phenyl}pyrazine-2-carboxamide], the IC50 fell in the range of 50 to 1000 nM.

In the case of `CNC(=O)c1nc(-c2cccc(NC(=O)CCc3ccccc3)c2)cnc1N` [Example 159, 3-amino-N-methyl-6-{3-[(3-phenylpropanoyl)amino]phenyl}pyrazine-2-carboxamide], the IC50 fell in the range of 50 to 1000 nM.

In the case of `CNC(=O)c1nc(-c2cccc(C(=O)N[C@@H]3CCCc4ccccc43)c2)cnc1N` [Example 160, 3-amino-N-methyl-6-(3-{[(1R)-1,2,3,4-tetrahydronaphthalen-1-ylamino]carbonyl}phenyl)pyrazine-2-carboxamide], the IC50 is 1000 to 10000 nM.

For `CNC(=O)c1nc(-c2cccc(C(=O)N[C@H]3CCCc4ccccc43)c2)cnc1N` [Example 161, 3-amino-N-methyl-6-(3-{[(1S)-1,2,3,4-tetrahydronaphthalen-1-ylamino]carbonyl}phenyl)pyrazine-2-carboxamide], the IC50 is 50 to 1000 nM.

For `CNC(=O)c1nc(-c2cccc(C(=O)NCc3cc(OC)c(OC)c(OC)c3)c2)cnc1N` [Example 162, 3-amino-N-methyl-6-{3-[({[3,4,5-tris(methyloxy)phenyl]methyl}amino)carbonyl]phenyl}pyrazine-2-carboxamide], the IC50 lay within 50 to 1000 nM.

`CNC(=O)c1nc(-c2cccc(C(=O)N[C@@H]3CCC[C@H]3OCc3ccccc3)c2)cnc1N` [Example 163, 3-amino-N-methyl-6-{3-[({(1R,2R)-2-[(phenylmethyl)oxy]cyclopentyl}amino)carbonyl]phenyl}pyrazine-2-carboxamide]: the IC50 lay within 1000 to 10000 nM.

With `CNC(=O)c1nc(-c2cccc(C(=O)N[C@H]3CCC[C@@H]3OCc3ccccc3)c2)cnc1N` [Example 164, 3-amino-N-methyl-6-{3-[({(1S,2S)-2-[(phenylmethyl)oxy]cyclopentyl}amino)carbonyl]phenyl}pyrazine-2-carboxamide], the IC50 is 50 to 1000 nM.

As for `CNC(=O)c1nc(-c2cccc(C#N)c2)cnc1N` [Example 165, 3-amino-6-(3-cyanophenyl)-N-methylpyrazine-2-carboxamide], the IC50 was 1000 to 10000 nM.

Take `CNC(=O)c1nc(-c2cccc(NC(=O)C3CCCC3)c2)cnc1N` [Example 166, 3-amino-6-{3-[(cyclopentylcarbonyl)amino]phenyl}-N-methylpyrazine-2-carboxamide]: the concentration for half-maximal inhibition (IC50) lay within 50 to 1000 nM.

Take `CNC(=O)c1nc(-c2cccc(NC(=O)c3ccc(C#N)cc3)c2)cnc1N` [Example 167, 3-amino-6-(3-{[(4-cyanophenyl)carbonyl]amino}phenyl)-N-methylpyrazine-2-carboxamide]: the IC50 was 50 to 1000 nM.

On to `CNC(=O)c1nc(-c2cccc(NC(=O)NCc3ccccc3)c2)cnc1N` [Example 168, 3-amino-N-methyl-6-[3-({[(phenylmethyl)amino]carbonyl}amino)phenyl]pyrazine-2-carboxamide], for which the IC50 was 50 to 1000 nM.

With `CNC(=O)c1nc(-c2cccc(C(=O)NCc3ccc4ccccc4c3)c2)cnc1N` [Example 169, 3-amino-N-methyl-6-(3-{[(naphthalen-2-ylmethyl)amino]carbonyl}phenyl)pyrazine-2-carboxamide], the IC50 lay within 50 to 1000 nM.

With `CNC(=O)c1nc(-c2cccc(C(=O)NCC3CCCO3)c2)cnc1N` (stereo not shown) [Example 170, 3-amino-N-methyl-6-(3-{[(tetrahydrofuran-2-ylmethyl)amino]carbonyl}phenyl)pyrazine-2-carboxamide], the IC50 lay in the range of 1000 to 10000 nM.

`CNC(=O)c1nc(-c2cccc(C(=O)NCc3c(F)cccc3Cl)c2)cnc1N` [Example 171, 3-amino-6-[3-({[(2-chloro-6-fluorophenyl)methyl]amino}carbonyl)phenyl]-N-methylpyrazine-2-carboxamide]: the IC50 lay within 50 to 1000 nM.

Turning to `CNC(=O)c1nc(-c2cccc(C(=O)NCc3cc(F)cc(C(F)(F)F)c3)c2)cnc1N` [Example 172, 3-amino-6-{3-[({[3-fluoro-5-(trifluoromethyl)phenyl]methyl}amino)carbonyl]phenyl}-N-methylpyrazine-2-carboxamide], the IC50 is 50 to 1000 nM.

For the molecule `CNC(=O)c1nc(-c2cccc(C(=O)NCCc3cc(OC)cc(OC)c3)c2)cnc1N` [Example 173, 3-amino-6-{3-[({2-[3,5-bis(methyloxy)phenyl]ethyl}amino)carbonyl]phenyl}-N-methylpyrazine-2-carboxamide], the IC50 was in the range of 1000 to 10000 nM.

As for `CNC(=O)c1nc(-c2cccc(OCCc3ccccc3)c2)cnc1N` [Example 174, 3-amino-N-methyl-6-{3-[(2-phenylethyl)oxy]phenyl}pyrazine-2-carboxamide], the IC50 lay within 50 to 1000 nM.

On to `CNC(=O)c1nc(-c2cccc(OCCN3CCC(C)CC3)c2)cnc1N` [Example 175, 3-amino-N-methyl-6-(3-{[2-(4-methylpiperidin-1-yl)ethyl]oxy}phenyl)pyrazine-2-carboxamide], for which the IC50 lay within 1000 to 10000 nM.

In the case of `CNC(=O)c1nc(-c2cccc(OCCN3CCC(CCO)CC3)c2)cnc1N` [Example 176, 3-amino-6-[3-({2-[4-(2-hydroxyethyl)piperidin-1-yl]ethyl}oxy)phenyl]-N-methylpyrazine-2-carboxamide], the IC50 lay within 1000 to 10000 nM.

In the case of `CNC(=O)c1nc(-c2cccc(OCCN3CCC(O)C3)c2)cnc1N` (stereo not shown) [Example 177, 3-amino-6-(3-{[2-(3-hydroxypyrrolidin-1-yl)ethyl]oxy}phenyl)-N-methylpyrazine-2-carboxamide], the IC50 lay in the range of 1000 to 10000 nM.

Take `CCN(CCOc1cccc(-c2cnc(N)c(C(=O)NC)n2)c1)Cc1ccccc1` [Example 178, 3-amino-6-[3-({2-[ethyl(phenylmethyl)amino]ethyl}oxy)phenyl]-N-methylpyrazine-2-carboxamide]: the IC50 was 50 to 1000 nM.

In the case of `CCN(CC)CCOc1cccc(-c2cnc(N)c(C(=O)NC)n2)c1` [Example 179, 3-amino-6-(3-{[2-(diethylamino)ethyl]oxy}phenyl)-N-methylpyrazine-2-carboxamide], the IC50 is 50 to 1000 nM.

Take `CNC(=O)c1nc(-c2cccc(C(=O)NCc3ccccc3-c3ccccc3)c2)cnc1N` [Example 180, 3-amino-6-(3-{[(biphenyl-2-ylmethyl)amino]carbonyl}phenyl)-N-methylpyrazine-2-carboxamide]: the IC50 was under 50 nM.

Consider `CNC(=O)c1nc(-c2cccc(OCCN3CCN(c4ccccc4)CC3)c2)cnc1N` [Example 181, 3-amino-N-methyl-6-(3-{[2-(4-phenylpiperazin-1-yl)ethyl]oxy}phenyl)pyrazine-2-carboxamide], for which the IC50 fell in the range of 50 to 1000 nM.

For the molecule `CNC(=O)c1nc(-c2cccc(C(=O)NCc3ccc(-c4ccccc4)cc3)c2)cnc1N` [Example 182, 3-amino-6-(3-{[(biphenyl-4-ylmethyl)amino]carbonyl}phenyl)-N-methylpyrazine-2-carboxamide], the IC50 is under 50 nM.

For `CNC(=O)c1nc(-c2cccc(OCCN(C)Cc3ccccc3)c2)cnc1N` [Example 183, 3-amino-N-methyl-6-[3-({2-[methyl(phenylmethyl)amino]ethyl}oxy)phenyl]pyrazine-2-carboxamide], the concentration for half-maximal inhibition (IC50) is 50 to 1000 nM.

Turning to `CNC(=O)c1nc(-c2cccc(C(=O)NCc3ccc(Oc4ccccc4)cc3)c2)cnc1N` [Example 184, 3-amino-N-methyl-6-{3-[({[4-(phenyloxy)phenyl]methyl}amino)carbonyl]phenyl}pyrazine-2-carboxamide], the IC50 lay within 50 to 1000 nM.
